“Also recorded” adds a separate entry of the source.
Columns and labels:
[1] = tested on: HeLa cells; assay: BT assay: liposomal N1-eGFP transfection of HeLa cells in DNASE-conditioned media, GFP immunoblot; assay type: cell-based; conditions: equivalent doses of Ifn-γ, no macrophages
[2] = tested on: bone marrow macrophages; assay: Induction of D1L3 in cultured bone marrow macrophages (anti-D1L3 immunoblot, RDA, zymogram); assay type: cell-based, C57BL mice; conditions: 100 U/ml for the interferons
Method: FIG. 22. Normal and induced expression of D1L3 in murine macrophages. […] In anti-D1L3 blots of cell lysates, the protein is seen both as a ^˜34 kDa uncleaved molecule and a ^˜28 kDa cleaved molecule. […] Cells were plated on serum-coated tissue culture dishes and incubated overnight, the next morning, non-adherent cells (N) were rinsed vigorously with PBS 1×, and both adeherent (A) and non-adherent cells (N) from C57BL, NZB/W, BXSB, and MRL were lysed and immunoblotted with anti-D1L3. While the ^˜34 kDa size band consistent with uncleaved D1L3 is present in both adherent and non-adherent, the cleaved form (^˜28 kDa) is present almost exclusively in the adherent population of presumed macrophages. Also noticable are the higher levels of expression of D1L3 in the 3 latter lupus strains. Panel B: Untreated bone marrow macrophages from NZB/WF1 mice have a much higher baseline expression expression of D1L3 than C57BL macrophages.
Induction is present in macrophages from both strain though the absolute level of induction appears greater in C57BL than in the SLE-prone NZB/W F1 strain. NZB/W protein loads in Ifn-γ-negative lane is slightly underloaded relative to actin. Panel C: Bone marrow macrophages isolated from bone marrow (via adherence) from MRL and C57BL mice, and cultured for 2 days in vitro, were induced by Ifn-γ. […] No induction of D1L3, RDA-DNASE, or zymographic DNASE activity is evident upon tratement with 100 U/ml of Ifn-alpha. […] Panel D: Bone marrow macrophages from C57BL and MRL mice cultured for 7 days in the presence of GM-CSF were induced with Ifn-γ, again showing the higher baseline levels of 28 kDa enzyme in the lupus prone strain, and in C57BL showing induction of levels aftern Ifn-γ. […]
(§1) Assays of Murine Cells. […] Splenocytes were counted using a hemochromocytometer, and plated at 2 million cells/ml on plastic 6-well Falcon tissue culture dishes (Becton Dickinson) in RPMI with 10% FCS. […]

[3] = tested on: bone marrow-derived macrophages; assay: BT activity of media conditioned by Ifn-γ treated bone marrow-derived macrophages, overlaid on HeLa cells; assay type: cell-based, C57BL mice; conditions: 100 U/ml; b134: 1000 U/ml vs 100U/ml
Source text: FIG. 29. Media conditioned by Ifn-γ treated macrophages from C57BI, but not NZB/W F1 mice is able to confer an in vitro barrier to liposomal gene transduction (BT). Panel A: Media conditioned by interferon-g (Ifn-γ) treated bone marrow-derived macrophages from C57 BL confers a barrier to liposomal transfection to HeLa. […] Panel B: As interferon dose increased, the ability by C57BL macrophages to confer a barrier to transfection increased. In the absence of Ifn-γ, macrophages confer a weaker barrier. Panel C: Interferon gamma induces both DNASE activity by RDA and a DNASE band compatible with DNASE1L3 at 28 kD, plus induces a BT activity. Samples were from macrophages from two C57BL mice (B1 and B2). In the left register is pre- and post interferon RDAs, in the middle register, pre and post interferon, and in the right register are the BT assays (GFP immunoblots of tranfected HeLa cells) on HeLa cells, including HeLa cells treated directly with interferon gamma for 48 hours. Media conditioned for 48 hours. Panel D: BT activity in macrophage-conditioned media from NZB/W F1 (NZ) or C57BL (BL). […]
as §1

Ifn-γ: interferon-gamma (Genzyme), macrophage activator
BT of HeLa cells treated with Ifn-γ or of media conditioned by them [1]: neither confer nor possess a BT | induction of D1L3 in macrophages [2]: inducible; also recorded: significant induction of D1L3 levels | BT activity of media conditioned by treated macrophages [3]: confers BT; also recorded: Increased BT activity

Reference: US20040138156A1, “Therapeutic regulation of deoxyribonuclease-1-like-3 activity” (priority 2002, published 2004)
